Literature values, collected in the CATMoS acute toxicity set (Mansouri et al. 2021).
Several values for one entry are separate records, joined by “and”; a condition that tells them apart may be missing. Identical values can stand only once.

Test: rat acute oral toxicity
Conditions: in vivo

| Structure (SMILES) | LD50 |
| --- | --- |
| COc1ccc(SP(=S)(CCl)OC(C)C)cc1 (stereo not given) | 108 mg/kg |
| CN(C)C=CC#N | 946 mg/kg |
| N#Cc1cccc(C#N)c1 | 860 mg/kg |
| CCC(Br)(CC)C(=O)NC(N)=O | 316 mg/kg |
| CC(=S)Nc1ccccc1 | 2640 mg/kg |
| CC(C)=CCC(CCN1CCCC1)(C(N)=O)c1cccc2ccccc12 (stereo not given) | 71 mg/kg |
| COc1cc(N)c2c(c1N)C(=O)c1ccccc1C2=O | 891 mg/kg |
| O=[N+]([O-])C(Br)Br | 86 mg/kg |
| OC(CCN1CCCCC1)(c1ccccc1)C1CC2C=CC1C2 (stereo not given) | 750 mg/kg |
| CCCCCCC1=CC(=O)CC(c2ccc3c(c2)OCO3)C1 (stereo not given) | 5200 mg/kg |
| FC(F)(F)c1nc2c(Cl)cc(I)cc2[nH]1 | 1.44 mg/kg |
| CN(C)CC(=O)N1Cc2ccccc2CC2CCCCC21 (stereo not given) | 1400 mg/kg |
| c1ccc([Si]23OCCN(CCO2)CCO3)cc1 | 1.48 mg/kg |
| CN(C)C(=S)N(C)C | 920 mg/kg |
| CC(C)NCCCC1(C(N)=O)c2ccccc2-c2ccccc21 | 82 mg/kg |
| CN(C)CCC(c1ccccc1)c1ccccn1 (stereo not given) | 520 mg/kg |
| CN=C(O)O/N=C1/SC(C)OC1C (stereo not given) | 4.5 mg/kg |
| C=CC(=O)N(C)C | 316 mg/kg |
| Cc1c(Cl)c(Cl)c2nc(C(F)(F)F)[nH]c2c1Cl | 18.3 mg/kg |
| CC(=O)OC(OC(C)=O)C(Cl)CCl (stereo not given) | 320 mg/kg |
| CN(C)C(=O)c1sc(-c2cccnc2)nc1-c1ccccc1 | 1040 mg/kg |
| C/C=C1/C[C@@H](C)[C@](O)(CO)C(=O)OCC2=CCN3CC[C@@H](OC1=O)[C@@H]23 | 34 mg/kg |
| CC(=O)C(C)=Cc1ccccc1 | 4100 mg/kg |
| O=[N+]([O-])c1cc(Cl)c2nc(C(F)(F)F)[nH]c2c1 | 9.87 mg/kg |

| Structure (SMILES) | LD50 |
| --- | --- |
| CS(=O)(=O)OCCCN(CCCOS(C)(=O)=O)c1ccccc1 | 38 mg/kg |
| c1ccc2c(c1)OCO2 | 580 mg/kg |
| Cc1ccc(OP(=O)(Oc2ccc(C)cc2)Oc2ccc(C)cc2)cc1 | 12800 mg/kg |
| Cc1cc(N)n(-c2ccccc2)n1 | 2500 mg/kg |
| CC1COC2(c3ccccc3Cl)c3cc(Cl)ccc3NC(=O)CN12 (stereo not given) | 4500 mg/kg |
| O=C(Oc1ccccc1)c1ccccc1C(=O)Oc1ccccc1 | 8000 mg/kg |
| CCCCCCCCCCCCCCCCOCCOCCOCCOCCOCCOCCOCCOCCOCCOCCOCCOCCOCCOCCOCCOCCOCCOCCOCCOCCO | 2500 mg/kg |
| CCN(CC)C(=O)c1cccc(OC)c1O | 2080 mg/kg |
| COc1c(C(=O)CCC(=O)O)ccc2c(C)c(C)oc12 | 3000 mg/kg |
| Cc1cccc(C)c1N(CCCC(=O)O)C(=O)c1ccc(Cl)cc1 | 1900 mg/kg |
| COC(=O)Nc1nc2ccccc2[nH]1 | 6400 mg/kg and 12500 mg/kg and 7500 mg/kg |
| Cc1ccc(C(=O)c2ccc(CC(=O)NCCn3cnc4c3c(=O)n(C)c(=O)n4C)n2C)cc1 | 1200 mg/kg |
| O=C(O)c1ccccc1OP(=O)(O)O | 1100 mg/kg |
| CC(c1ccccc1)C(C)(C)N (stereo not given) | 180 mg/kg |
| O=NN(O)c1ccccc1 | 199 mg/kg and 490 mg/kg |
| Nc1c(Cl)cc(Cl)cc1C(=O)O | 4120 mg/kg |
| C[N+](C)(C)CC[N+]1(C)Cc2c(Cl)c(Cl)c(Cl)c(Cl)c2C1 | 300 mg/kg |
| CNC(=O)Oc1ccc(NC(=O)C(F)(F)Cl)c(C)c1 | 48.5 mg/kg |
| CC(C)=C1CC[C@@H](C)CC1=O | 470 mg/kg |
| COC1=C2C[C@@H](C)C[C@H](OC)[C@H](O)[C@@H](C)C=C(C)[C@H](OC(N)=O)[C@@H](OC)C=CC=C(C)C(=O)NC(=CC1=O)C2=O | 2500 mg/kg |
| C=CCSC(C)C1(CC(C)C)C(=O)N=C(O)NC1=O (stereo not given) | 417 mg/kg |
| Cc1ccc(N=NN(C)C)cc1 | 395 mg/kg |
| C=CC(=O)NC(C)(C)CS(=O)(=O)O | 16000 mg/kg |
| CC1CN(CCO)CC1C (stereo not given) | 1230 mg/kg |

| Structure (SMILES) | LD50 |
| --- | --- |
| C#CCOP(=O)(OCCC)c1ccccc1 (stereo not given) | 362 mg/kg |
| O=C(NC(=O)c1c(F)cccc1F)Nc1cc(Cl)c(Oc2ncc(C(F)(F)F)cc2Cl)c(Cl)c1 | 445 mg/kg |
| CC(C)c1ccc(NC(=O)N(C)C)cc1 | 1830 mg/kg |
| Nc1cc(S(=O)(=O)O)c2cccc(S(=O)(=O)O)c2c1 | 11400 mg/kg |
| Cc1ccc(C)[nH]1 | 59 mg/kg |
| FC(F)(F)c1nnc2c3ccccc3ccn12 | 660 mg/kg |
| C=Cc1ccccc1Cl | 5200 mg/kg |
| Brc1ccc2[nH]cc(CC3CCNCC3)c2c1 | 25 mg/kg |
| CC(C)N(C)C | 684 mg/kg |
| CC1C(=O)OC2CCN3CC=C(COC(=O)C(C)(O)C1(C)O)C23 (stereo not given) | 45.5 mg/kg |
| CC(C)c1ccc2ccccc2c1C(C)C | 15200 mg/kg |
| C=COP(=O)(OCC)OC(CCl)c1cc(Cl)c(Cl)cc1Cl (stereo not given) | 1100 mg/kg |
| CCc1cc(C(N)=S)ccn1 | 1320 mg/kg |
| CCCCCCC(C)P(=O)(C(C)CCCCCC)C(C)CCCCCC (stereo not given) | 7270 mg/kg |
| CCOC(O)C(Cl)(Cl)Cl (stereo not given) | 880 mg/kg |
| CCC=CCC=CCC=CCC=CCC=CCC=CCCC(=O)O | 10000 mg/kg |
| Nc1nc2cc(Br)ccc2o1 | 1000 mg/kg |
| CN(C)CC/C=C1\c2ccccc2CSc2ccccc21 | 450 mg/kg |
| C=CC(=O)OCCN(C)C | 455 mg/kg |
| O=C(O)c1c(Cl)ccc(Cl)c1Cl | 1640 mg/kg |
| CC(=O)c1ccc(C)cc1 | 1400 mg/kg |
| C=CCOc1ccccc1C(N)=O | 780 mg/kg |
